Laboratory results: publication PMC4787807 (Nucleic Acids Research, 2015)

Biological target: EAV nsp9 (Equine arteritis virus Bucyrus, UniProt P19811)
Experiment: covalent labelling, tryptic digest and nano-LC-MS/MS

Sequence of EAV nsp9 (P19811 1678-2370): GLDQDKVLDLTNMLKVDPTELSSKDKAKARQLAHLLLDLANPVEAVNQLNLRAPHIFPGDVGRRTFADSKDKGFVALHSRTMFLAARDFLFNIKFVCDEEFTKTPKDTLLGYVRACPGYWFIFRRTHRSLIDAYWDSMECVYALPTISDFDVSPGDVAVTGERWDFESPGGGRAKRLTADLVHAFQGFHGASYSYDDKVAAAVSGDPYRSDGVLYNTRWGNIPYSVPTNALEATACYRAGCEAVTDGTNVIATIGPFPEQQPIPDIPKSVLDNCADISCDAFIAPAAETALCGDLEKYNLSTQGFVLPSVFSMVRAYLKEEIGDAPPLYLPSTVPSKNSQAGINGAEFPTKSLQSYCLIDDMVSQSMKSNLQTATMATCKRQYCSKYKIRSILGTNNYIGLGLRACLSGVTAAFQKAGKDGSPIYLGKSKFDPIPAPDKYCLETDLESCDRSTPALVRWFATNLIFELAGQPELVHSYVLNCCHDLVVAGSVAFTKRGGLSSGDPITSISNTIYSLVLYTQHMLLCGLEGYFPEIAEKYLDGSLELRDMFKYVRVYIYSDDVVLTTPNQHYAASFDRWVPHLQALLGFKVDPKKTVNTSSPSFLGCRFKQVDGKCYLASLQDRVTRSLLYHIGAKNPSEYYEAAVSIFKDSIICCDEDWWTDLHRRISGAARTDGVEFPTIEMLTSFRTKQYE

Q: For Nc1nc2c(ncn2[C@@H]2O[C@H](COC(=O)c3ccc(S(=O)(=O)F)cc3)[C@@H](O)[C@H]2O)c(=O)[nH]1 [FSBG, 5′-(4-fluorosulfonylbenzoyl)guanosine], which “covalent labelling, tryptic digest and nano-LC-MS/MS” value is on record?
A: seven modified peptides representing five distinct nsp9 regions could be assigned
